Assay results published in US20220257484A1, “WHOLE MOUTH MALADOR CONTROL BY A COMBINATION OF ANTIBACTERIAL AND DEODORIZING AGENTS” (The Procter & Gamble Company, priority 2010, published 2022).
“And” between values parts separate entries of the source, which are not always exact repeats. Equal entries are not always repeated.

Experiment: in-vitro headspace GC-MS odor-neutralizing test, Relative Odor Activity Value (ROAV)
Conditions: recreated garlic odor, 0.05% active concentration, vs control, negative value indicates no reduction
Experimental: The odor-neutralizing or deodorization activity of target actives was evaluated against a recreated garlic odor using an in-vitro headspace gas chromatography-mass spectrometry (GC-MS) method described below. A mixture of five sulfur compounds (ethanethiol, 1-propanethiol, […], methyl allyl disulfide and […]) was used to simulate a garlic odor. […] [See e.g., J. Taucher, et al. J. Agric. Food Chem. (1996), 44 (12), 3778-3782; F. Suarez, et al. Am. J. Physiol. Gastrointest. Liver Physiol. (1999), 276: G425-G430; I. Laakso, et al. Planta Med. (1989), 55, 257-261; X. J. Cai, et al. J. Agric. Food Chem. (1995), 43, 1751-1753; T. Minami, et al. J. Food Sci. (1989), 54, 763-765.]
The following procedure and instrumentation were used to evaluate the relative odor-neutralizing activity of various compounds.
1) Purge product base (e.g., mouthrinse or dental solution) with nitrogen for 10 minutes. 2) Purge all sample preparation vials with stir bars inside for 1 minute. 3) Add 3960 μl product base to control vials (4 ml capacity) and 3560 μl product base to test sample vials (4 ml capacity). 4) Make garlic stock by mixing the following components in order: 600 μl ethanol; 500 μl ethanethiol; 80 μl 1-propanethiol; 30 μl […]; 20 μl methyl allyl disulfide; 70 μl […]. 5) Add 40 ul of garlic stock to each control and test sample vial. 6) Stir all samples to mix product base and garlic stock for a total time of 20 min. To each test sample vial, add 400 μl of test active after 15 min. of stirring and allow test active mix in and react for 5 min. 7) After mixing, transfer 50 μl each of control sample and test sample to nitrogen purged GC headspace vials. 8) Place control and test sample vials on headspace autosampler for GC analysis. Each sample is equilibrated at 32° C. for 3 min. before injection into the GC instrument.
A Relative OAV is calculated for each component by dividing its peak area by its odor threshold value. Odor threshold values for these compounds are reported in the literature. […] A negative value indicates no reduction in ROAV.

Compound	% Reduction of ROAV [%]	other results
Cc1ccc(C=O)cc1 [4-methylbenzaldehyde]	3.67	
CC1=CC(=O)[C@@H](C(C)C)CC1 [(−) Piperitone]	10.19	
COc1ccc(C=O)cc1 [Anisaldehyde, 4-methoxybenzaldehyde]	20.76	% Reduction of ROAV (listed as 4-Methoxybenzaldehyde (Anisaldehyde)): 20.76%; % Reduction of ROAV (listed as anisaldehyde): 20.76% and > 20%
O=CC=Cc1ccccc1 [Cinnamaldehyde]	10.73	
CC(C)=CCCC(C)=CC=O [Citral, reference compound]	−19.54	
CCc1occc(=O)c1O [Ethyl maltol, reference compound]	−3.46	
O=Cc1ccc2c(c1)OCO2 [Heliotropin, reference compound]	−2.92	
CCCCCC/C(C=O)=C\c1ccccc1 [Hexyl cinnamaldehyde, reference compound]	−1.19	
COc1ccc(C=O)cc1OC [Methyl vanillin (Veratraldehyde), 3,4-Dimethoxybenzaldehyde]	4.45	
CCCCCCCC=O [Octanal, reference compound]	−28.76	% Reduction of ROAV (listed as octanal): no reduction of ROAV
O=Cc1ccccc1O [Salicylaldehyde, 2-Hydroxybenzaldehyde, reference compound]	−5.87	
COc1ccc(C=CC=O)cc1 [para-Methoxycinnamaldehyde, reference compound]	−0.49	
CC(=O)/C=C/C1=C(C)CCCC1(C)C [β-Ionone]	17.56	
L(−) Carvone	3.27	
